In the SangsterLogP compilation one finds logP data, which are given here for 28 molecules.

Structures are written as SMILES.

The data set can be described thus: method code SF-AS, from DOI: 10.1002/zfch.19790190911.
As usually defined, the logP is the decadic logarithm of the partition coefficient of the neutral form, usually between octanol and water. A high value points to a more lipophilic compound. In the case of `CCCCCCC(=O)NN`, the logP came to 0.97.

In turn, `CCCC(=O)NN` came in with a logP of -0.62.

`CC(=O)NN` gave a logP of -1.58.

For the molecule `CC(C)CC(=O)NN`, the logP was -0.31.

In turn, `CC(C)Cc1nnc(N)o1` returned a logP of 0.4.

For the molecule `Cc1nnc(N)o1`, the logP was -0.92.

For `Nc1nnco1`, the logP was -1.44.

In turn, `CCCCCCCCCC(=O)NN` yielded a logP of 0.03.

`CC(C)C(=O)NN` displayed a logP of -0.63.

With `CCCCCC(=O)NN`, the logP came out at 0.48.

Molecule `CCCCCCCc1nnc(N)o1` registered a logP of 0.73.

In turn, `CCCCCCCCC(=O)NN` gave a logP of 0.5.

`CCC(C)C(=O)NN` (stereo not drawn) showed a logP of -0.33.

In the case of `CCCCC(=O)NN`, the logP was -0.11.

With `NNC=O`, the logP was -2.05.

`CCCc1nnc(N)o1` displayed a logP of 0.23.

On to `Nc1nnc(CCc2ccccc2)o1`, for which the logP came to 1.19.

For the molecule `CC(C)(C)c1nnc(N)o1`, the logP worked out at 0.48.

Consider `Nc1nnc(Cc2ccccc2)o1`, for which the logP was found to be 0.95.

`CCc1nnc(N)o1` had a logP of -0.3.

Consider `CC(C)(C)C(=O)NN`, for which the logP was -0.35.

In turn, `CCCCCCc1nnc(N)o1` gave a logP of 1.43.

On to `CCC(C)c1nnc(N)o1` (stereo not drawn), for which the logP was 0.62.

Take `CC(C)c1nnc(N)o1`: the logP was found to be 0.2.

In turn, `CCCCc1nnc(N)o1` gave a logP of 0.65.

On to `CCC(=O)NN`, for which the logP was -1.

Molecule `CCCCCCCC(=O)NN` displayed a logP of 1.

Turning to `CCCCCc1nnc(N)o1`, the logP was 1.1.
